The values below come from US20230057621A1 (priority 2019, published 2023).

What all share (type): cell-based
One assay has as its system EB virus.
Assay [1] has as its system pseudorabies virus.
In assay [2] the test system is pseudorabies virus. This is another data set of the same source.

For the compound `CC(C)(C)C(=O)OCOP(=O)(COCCn1cnc2c(N)ncnc21)OCOC(=O)C(C)(C)C` [adefovir dipivoxil], in the assay with EB virus, the “inhibitory activity against EB virus replication” value is “no inhibitory activity against EB virus”. Moreover, in the assay with pseudorabies virus [1], the “EC50 for the inhibition against pseudorabies virus proliferation” value is “reaches nanomolar level”; the “inhibitory effect on pseudorabies virus replication and proliferation” value is “can significantly inhibit the replication and proliferation of pseudorabies virus”. Further, the “inhibition of the release of pseudorabies virus from cells” value in the assay on pseudorabies virus [2] was “can significantly inhibit the release of pseudorabies virus from cells”.
